Results on 32 compounds are retold here after patent US20250145633A1, “SUBSTITUTED FURANOPYRIMIDINE COMPOUNDS AS PDE1 INHIBITORS” (Dart NeuroScience, LLC, priority 2017, published 2025).

Each structure is given as a SMILES string.

The target of this experiment is human PDE1B enzyme (Homo sapiens (Human), UniProt Q01064). Put plainly: IMAP TR-FRET PDE1B enzymatic assay. The experiment is classed as biochemical. The conditions noted are these: negative log of half-maximal molar inhibitory concentration; 200 nM FAM-cAMP; values given as bins; read-out: PDE1b (pIC50) (converted). In short, it runs like this: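 Full-length GST-tagged human PDE1B (250 pg/well) in IMAP BSA buffer with 10 U/ml calmodulin and 2.5 mM CaCl2; compound pre-incubated 5 min at room temperature, then 200 nM (final) FAM-cAMP for 30 min. IMAP binding reagent/Tb added, 1 h; TR-FRET 520/490 ratio read. IC50 from sigmoidal dose-response fit.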
Turning to `C#CCN(Cc1ccc(OC)cc1)C(=O)c1c(C)oc2ncnc(NC3(C)CC3)c12` [Example 606, N-[(4-Methoxyphenyl)methyl]-6-methyl-4-[(1-methylcyclopropyl)amino}-N-(prop-2-yn-1-yl)furo[2,3-d]pyrimidine-5-carboxamide], the IC50 was 10 to 100 nM. For `COc1ccccc1C(C)NC(=O)c1c(C)oc2ncnc(NC3(C)CC3)c12` (centres unmarked) [Example 613, N-[1-(2-Methoxyphenyl)ethyl]-6-methyl-4-[(1-methylcyclopropyl)amino]furo[2,3-d]pyrimidine-5-carboxamide] the value was 10 to 100 nM; for `Cc1oc2ncnc(NC3(C)CC3)c2c1C(=O)NCc1cc([N+](=O)[O-])ccc1F` [Example 614, N-[(2-Fluoro-5-nitrophenyl)methyl]-6-methyl-4-[(1-methylcyclopropyl)amino]furo[2,3-d]pyrimidine-5-carboxamide], less than 10 nM. For the compound `COc1ccc(CCNC(=O)c2c(C)oc3ncnc(NC4(C)CC4)c23)cc1` [Example 619, N-[2-(4-Methoxyphenyl)ethyl]-6-methyl-4-[(1-methylcyclopropyl)amino]furo[2,3-d]pyrimidine-5-carboxamide], the IC50 was 10 to 100 nM. For `Cc1oc2ncnc(NC3(C)CC3)c2c1C(=O)Nc1cnn(-c2cccnc2)c1` [Example 620, 6-Methyl-4-[(1-methylcyclopropyl)amino]-N-[1-(pyridin-3-yl)-1H-pyrazol-4-yl]furo[2,3-d]pyrimidine-5-carboxamide] the value was 10 to 100 nM. For `Cc1oc2ncnc(NC3(C)CC3)c2c1C(=O)Nc1cnn(-c2ccncc2)c1` [Example 621, 6-Methyl-4-[(1-methylcyclopropyl)amino]-N-[1-(pyridin-4-yl)-1H-pyrazol-4-yl]furo[2,3-d]pyrimidine-5-carboxamide] the value was 10 to 100 nM; for `COc1ncnc2c1CN(C(=O)c1c(C)oc3ncnc(NC4(C)CC4)c13)C2` [Example 622, 5-{4-Methoxy-5H,6H,7H-pyrrolo[3,4-d]pyrimidine-6-carbonyl}-6-methyl-N-(1-methylcyclopropyl)furo[2,3-d]pyrimidin-4-amine], 100 to 1000 nM. For `Cc1oc2ncnc(NC3(C)CC3)c2c1C(=O)N1CCn2cc(C(F)(F)F)nc2C1` [Example 623, 6-Methyl-N-(1-methylcyclopropyl)-5-[2-(trifluoromethyl)-5H,6H,7H,8H-imidazo[1,2-a]pyrazine-7-carbonyl]furo[2,3-d]pyrimidin-4-amine] the value was 10 to 100 nM. For the compound `Cc1oc2ncnc(NC3(C)CC3)c2c1C(=O)N1CCn2c(Br)cnc2C1` [Example 624, 5-{3-Bromo-5H,6H,7H,8H-imidazo[1,2-a]pyrazine-7-carbonyl}-6-methyl-N-(1-methylcyclopropyl)furo[2,3-d]pyrimidin-4-amine], the IC50 was 10 to 100 nM. For `Cc1nccc(CNC(=O)c2c(C)oc3ncnc(NC4(C)CC4)c23)n1` [Example 625, 6-Methyl-4-[(1-methylcyclopropyl)amino]-N-[(2-methylpyrimidin-4-yl)methyl]furo[2,3-d]pyrimidine-5-carboxamide] the value was 10 to 100 nM. For `Cc1oc2ncnc(NC3(C)CC3)c2c1C(=O)NCc1noc(C(F)(F)Cl)n1` [Example 626, N-{[5-(Chlorodifluoromethyl)-1,2,4-oxadiazol-3-yl]methyl}-6-methyl-4-[(1-methylcyclopropyl)amino]furo[2,3-d]pyrimidine-5-carboxamide] the value was 10 to 100 nM; for `Cc1noc(CNC(=O)c2c(C)oc3ncnc(NC4(C)CC4)c23)n1` [Example 627, 6-Methyl-N-[(3-methyl-1 2 4-oxadiazol-5-yl)methyl]-4-[(1-methylcyclopropyl)amino]furo[2,3-d]pyrimidine-5-carboxamide], 10 to 100 nM. For `Cc1oc2ncnc(NC3(C)CC3)c2c1C(=O)N1CCc2c(ncnc2C(C)C)C1` [Example 628, 6-Methyl-N-(1-methylcyclopropyl)-5-[4-(propan-2-yl)-5H,6H,7H,8H-pyrido[3,4-d]pyrimidine-7-carbonyl]furo[2,3-d]pyrimidin-4-amine] the value was 10 to 100 nM; for `COc1ncnc2c1CCN(C(=O)c1c(C)oc3ncnc(NC4(C)CC4)c13)CC2` [Example 629, 5-{4-Methoxy-5H,6H,7H,8H,9H-pyrimido[4,5-d]azepine-7-carbonyl}-6-methyl-N-(1-methylcyclopropyl)furo[2,3-d]pyrimidin-4-amine], 100 to 1000 nM. For `Cc1oc2ncnc(NC3(C)CC3)c2c1C(=O)N1CCc2cccnc2C1` [Example 630, 6-Methyl-N-(1-methylcyclopropyl)-5-(5,6,7,8-tetrahydro-1,7-naphthyridine-7-carbonyl)furo[2,3-d]pyrimidin-4-amine], the IC50 was 10 to 100 nM.

Turning to `Cc1oc2ncnc(NC3(C)CC3)c2c1C(=O)N1CCc2ncccc2C1` [Example 631, 6-Methyl-N-(1-methylcyclopropyl)-5-(5,6,7,8-tetrahydro-1,6-naphthyridine-6-carbonyl)furo[2,3-d]pyrimidin-4-amine], the IC50 was 100 to 1000 nM. For `Cc1cc2n(n1)CCN(C(=O)c1c(C)oc3ncnc(NC4(C)CC4)c13)C2` [Example 632, 6-Methyl-5-f{2-methyl-4H,5H,6H,7H-pyrazolo[1,5-a]pyrazine-5-carbonyl}-N-(1-methylcyclopropyl)furo[2,3-d]pyrimidin-4-amine] the value was 10 to 100 nM; for `Cc1cn2c(n1)CN(C(=O)c1c(C)oc3ncnc(NC4(C)CC4)c13)CC2` [Example 633, 6-Methyl-5-{2-methyl-5H,6H,7H,8H-imidazo[1,2-a]pyrazine-7-carbonyl}-N-(1-methylcyclopropyl)furo[2,3-d]pyrimidin-4-amine], 100 to 1000 nM; for `COc1cc2c(cn1)CN(C(=O)c1c(C)oc3ncnc(NC4(C)CC4)c13)CC2` [Example 634, 5-(6-Methoxy-1,2,3,4-tetrahydro-2,7-naphthyridine-2-carbonyl)-6-methyl-N-(1-methylcyclopropyl)furo[2,3-d]pyrimidin-4-amine], 10 to 100 nM.

On to `COc1ccc2c(n1)CCN(C(=O)c1c(C)oc3ncnc(NC4(C)CC4)c13)C2` [Example 635, 5-(2-Methoxy-5,6,7,8-tetrahydro-1,6-naphthyridine-6-carbonyl)-6-methyl-N-(1-methylcyclopropyl)furo[2,3-d]pyrimidin-4-amine], for which the IC50 is 10 to 100 nM. Take `Cc1oc2ncnc(NC3(C)CC3)c2c1C(=O)N1CCn2nc(C#N)cc2C1` [Example 636, 5-{6-Methyl-4-[(1-methylcyclopropyl)amino]furo[2,3-d]pyrimidine-5-carbonyl}-4H,5H,6H,7H-pyrazolo[1,5-a]pyrazine-2-carbonitrile]: the IC50 is 100 to 1000 nM. As to `Cc1oc2ncnc(NC3(C)CC3)c2c1C(=O)N1CCc2ccncc2C1` [Example 637, 6-Methyl-N-(1-methylcyclopropyl)-5-(1,2,3,4-tetrahydro-2 7-naphthyridine-2-carbonyl)furo[2,3-d]pyrimidin-4-amine], the IC50 was 100 to 1000 nM. For `Cc1oc2ncnc(NC3(C)CC3)c2c1C(=O)N1CCn2c(C(F)(F)F)nc(C3CCOCC3)c2C1` [Example 638, 6-Methyl-N-(1-methylcyclopropyl)-5-[1-(oxan-4-yl)-3-(trifluoromethyl)-5H,6H,7H,8H-imidazo[1,5-a]pyrazine-7-carbonyl]furo[2,3-d]pyrimidin-4-amine] the value was 100 to 1000 nM; for `Cc1oc2ncnc(NC3(C)CC3)c2c1C(=O)N1CCn2c(C)nc(C3CCOCC3)c2C1` [Example 639, 6-Methyl-5-[3-methyl-1-(oxan-4-yl)-5H,6H,7H,8H-imidazo[1,5-a]pyrazine-7-carbonyl]-N-(1-methylcyclopropyl)furo[2,3-d]pyrimidin-4-amine], 100 to 1000 nM. For `Cc1oc2ncnc(NC3(C)CC3)c2c1C(=O)N1CCn2cncc2C1` [Example 640, 5-{5H,6H,7H,8H-Imidazo[1,5-a]pyrazine-7-carbonyl}-6-methyl-N-(1-methylcyclopropyl)furo[2,3-d]pyrimidin-4-amine], the IC50 is 100 to 1000 nM. For `Cc1oc2ncnc(NC3(C)CC3)c2c1C(=O)N1CCn2ncc(Br)c2C1` [Example 641, 5-{3-Bromo-4H,5H,6H,7H-pyrazolo[1,5-a]pyrazine-5-carbonyl}-6-methyl-N-(1-methylcyclopropyl)furo[2,3-d]pyrimidin-4-amine] the value was 100 to 1000 nM; for `Cc1oc2ncnc(NC3(C)CC3)c2c1C(=O)N1CCc2cc(Cl)ncc2C1` [Example 642, 5-(6-Chloro-1,2,3,4-tetrahydro-2,7-naphthyridine-2-carbonyl)-6-methyl-N-(1-methylcyclopropyl)furo[2,3-d]pyrimidin-4-amine], 10 to 100 nM; for `CON(C)C(=O)c1c(C)oc2ncnc(NC3(C)CC3)c12` [Example 643, N-Methoxy-N,6-dimethyl-4-[(1-methylcyclopropyl)amino]furo[2,3-d]pyrimidine-5-carboxamide], 100 to 1000 nM. On to `Cc1oc2ncnc(NC3(C)CC3)c2c1C(=O)NCc1ccnc(C(C)C)n1` [Example 644, 6-Methyl-4-[(1-methylcyclopropyl)amino]-N-{[2-(propan-2-yl)pyrimidin-4-yl]methyl}furo[2,3-d]pyrimidine-5-carboxamide], for which the IC50 was 10 to 100 nM.

As to `Cc1oc2ncnc(NC3(C)CC3)c2c1C(=O)Nc1cnn(C2CC2)c1` [Example 645, N-(1-Cyclopropyl-1H-pyrazol-4-yl)-6-methyl-4-[(1-methylcyclopropyl)amino]furo[2,3-d]pyrimidine-5-carboxamide], the IC50 was 10 to 100 nM. For `Cc1oc2ncnc(NC3(C)CC3)c2c1C(=O)NCc1cnn(C)c1` [Example 646, 6-Methyl-N-[(1-methyl-1H-pyrazol-4-yl)methyl]-4-[(1-methylcyclopropyl)amino]furo[2,3-d]pyrimidine-5-carboxamide] the value was 10 to 100 nM; for `Cc1oc2ncnc(NC3(C)CC3)c2c1C(=O)NCc1cncnc1` [Example 647, 6-Methyl-4-[(1-methylcyclopropyl)amino]-N-(pyrimidin-5-ylmethyl)furo[2,3-d]pyrimidine-5-carboxamide], 100 to 1000 nM.
